ChEMBL document CHEMBL1126358, “New hexahydroxydiphenyl derivatives as potent inhibitors of HIV replication in H9 lymphocytes” (Bioorg Med Chem Lett, 1992)
pEC50, pIC50: −log10 of the molar value.

Tests used:
H9 [1] = test: Concentration of compound which inhibits virus replication of HIV by 50% (EC50 of 10 uM) in acutely infected H9 lymphocyte cells was determined; type: functional, cell-based; settings: Homo sapiens
H9 [2] = test: Concentration which inhibits uninfected cell growth of HIV by 50% (IC50>140 uM) in acutely infected H9 lymphocyte cells was determined; type: functional, cell-based; settings: Homo sapiens

Row | Structure (SMILES) | pEC50 (H9 [1]) | pIC50 (H9 [2])
1 | OCc1cc(OCc2ccccc2)c(OCc2ccccc2)c(OCc2ccccc2)c1-c1c(CO)cc(OCc2ccccc2)c(OCc2ccccc2)c1OCc1ccccc1 | < 3.92 | < 3.92
2 | COc1c(OCc2ccccc2)c(OCc2ccccc2)cc(C=O)c1-c1c(C=O)cc(OCc2ccccc2)c(OCc2ccccc2)c1OC | 5.70 | 5.40
3 | Cc1cn([C@H]2C[C@H](N=[N+]=[N-])[C@@H](CO)O2)c(=O)[nH]c1=O [ZIDOVUDINE] | 7.40 | 2.70
4 | OCc1cc(OCc2ccccc2)c(OCc2ccccc2)c(O)c1-c1c(CO)cc(OCc2ccccc2)c(OCc2ccccc2)c1O | 5.22 | 4.89
5 | COc1c(OCc2ccccc2)c(OCc2ccccc2)cc(CBr)c1-c1c(CBr)cc(OCc2ccccc2)c(OCc2ccccc2)c1OC | 4.89 | 4.52
6 | BrCc1cc(OCc2ccccc2)c(OCc2ccccc2)c(OCc2ccccc2)c1-c1c(CBr)cc(OCc2ccccc2)c(OCc2ccccc2)c1OCc1ccccc1 | < 4.00 | < 4.00
7 | COc1c(OCc2ccccc2)c(OCc2ccccc2)cc(CO)c1-c1c(CO)cc(OCc2ccccc2)c(OCc2ccccc2)c1OC | 5.00 | < 3.85
8 | O=Cc1cc(OCc2ccccc2)c(OCc2ccccc2)c(OCc2ccccc2)c1-c1c(C=O)cc(OCc2ccccc2)c(OCc2ccccc2)c1OCc1ccccc1 | 4.35 | 4.15
